Measured values: ChEMBL document CHEMBL1944615, “Synthesis and biological evaluation of deoxy-hematoxylin derivatives as a novel class of anti-HIV-1 agents” (Bioorg Med Chem Lett, 2012)
pIC50: −log10 of the molar value.

Key:
[1] = Cytotoxicity against human MOLT4 cells expressing CD4+ after 2 days by MTT assay; format: cell-based, MOLT-4
[2] = system: Human immunodeficiency virus 1; experiment: Antiviral activity against HIV1 NL432 infected in human TZM-Bl cells assessed as inhibition of viral replication after 2 days by luciferase reporter gene analysis; format: functional, organism-based; conditions: for IC50: tzm-bl; for pIC50: Human immunodeficiency virus 1, NL432, TZM-bl, 48 h, read-out: IC50
[3] = system: Human immunodeficiency virus 1; experiment: Antiviral activity against HIV1 NL432 infected in human ConA and IL2-stimulated PBMC assessed as inhibition of viral replication by reverse transcriptase assay; format: functional, organism-based; conditions: for pIC50: Human immunodeficiency virus 1, NL432, read-out: IC50
[4] = system: Human immunodeficiency virus 1; experiment: Antiviral activity against HIV1 NF-462 expressing wild-type Vpr infected in human 293T cells containing 4 ng of viral p24 antigen after 8 days by ELISA; format: functional, organism-based; conditions: for pIC50: Human immunodeficiency virus 1, NF-462, HEK-293T, 192 h, read-out: IC50
[5] = Inhibition of HIV1 VPR/human importin-alpha interaction in human HeLa cells assessed as inhibition of nuclear import of preintegral complex after 15 mins by confocal laser scanning microscopic analysis; format: cell-based
[6] = system: Human immunodeficiency virus 1; experiment: Antiviral activity against HIV1 NF-462 expressing wild-type Vpr infected in human 293T cells containing 4 ng of viral p24 antigen after 8 days by ELISA relative to hematoxylin; format: functional
[7] = system: Human immunodeficiency virus 1; experiment: Antiviral activity against HIV1 NF-462 expressing wild-type Vpr infected in human 293T cells containing 1 ng of viral p24 antigen after 8 days by ELISA relative to hematoxylin; format: functional

Row | Structure (SMILES) | pIC50 [4] | pIC50 [5] | pIC50 [2] | pIC50 [3] | IC50 ([4]; 293t) | CC50 at 48 h [1] [nM] | IC50 [2] | IC50 [3] | Ratio IC50 [6] | Ratio IC50 [7]
1 | Oc1cc2c(cc1O)[C@@H]1c3ccccc3OC[C@]1(O)C2 | – | 5.72 | – | – | – | 1900 | ND(toxic) | – | – | –
2 | O[C@]12COc3ccccc3[C@H]1c1ccccc1C2 | – | 5.57 | – | – | – | > 100000 | Not Active | – | – | –
3 | CC1(C)Oc2cc3c(cc2O1)[C@@H]1c2cccc(OCc4ccccc4)c2OC[C@]1(O)C3 | – | 6.10 | – | – | Not Active | > 80000 | Not Active | – | – | –
4 | Oc1cc2c(cc1O)[C@@H]1c3ccc(O)c(O)c3OC[C@]1(O)C2 [HEMATOXYLIN] | > 6.00 | 5.89 | 4.00 | – | – | 40000 | – | ND(toxic) | – | –

The remaining molecules from weak to strong by pIC50 [5], led by results:

Row | pIC50 [4] | pIC50 [5] | pIC50 [2] | pIC50 [3] | IC50 ([4]; 293t) | Structure (SMILES) | CC50 at 48 h [1] [nM] | IC50 [2] | IC50 [3] | Ratio IC50 [6] | Ratio IC50 [7]
5 | 6.40 | 6.05 | – | – | – | Oc1cc2c(cc1O)[C@@H]1c3cccc(O)c3OC[C@]1(O)C2 | 32000 | ND(toxic) | ND(toxic) | – | –
6 | 6.05 | 6.22 | 4.17 | 4.60 | – | Oc1ccc2c(c1)C[C@@]1(O)COc3ccccc3[C@@H]21 | 82000 | – | – | – | –
7 | 7.00 | 6.30 | 4.61 | 4.52 | – | CC1(C)Oc2cc3c(cc2O1)[C@@H]1c2cccc(O)c2OC[C@]1(O)C3 | > 80000 | – | – | 10 | 2
